Data on five molecules can be found in patent US20230168255A1, “UNBLENDING OF TRANSCRIPTIONAL CONDENSATES IN HUMAN REPEAT EXPANSION DISEASE” (Max-Planck-Gesellschaft zur Förderung der Wissenschaften …, priority 2020, published 2023).

For assay [1], the target named is T1, Hoxd13 +7A IDR-Med1 IDR co-condensates (Homo sapiens, UniProt P35453, DUP65-71).
T1 construct: His tag (from pET45b(+); purified on a His column); made in house; host or cells: E. coli BL21(DE3)
T1 sequence (P35453 with tags, fused parts or gaps DUP65-71): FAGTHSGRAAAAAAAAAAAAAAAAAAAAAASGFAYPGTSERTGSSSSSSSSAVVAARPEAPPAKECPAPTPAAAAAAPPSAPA
Nature of the assay: in vitro droplet assay, compound treatment of Hoxd13 IDR-Med1 IDR co-condensates. The assay is classed as biochemical. To be noted: purified Hoxd13 +7A IDR-mCherry mixed with MED1 IDR-GFP; FIG. 3G-J, FIG. 8. On the procedure:
(§1) For image analysis, droplets were first automatically thresholded in either the mEGFP or mCherry channel using Zen Blue (Version 3.0), and then filtered by size, pixel intensity, and pixel deviation. Mean fluorescence intensities, area, and diameter of these primary regions were measured on both channels. For quantification and data visualization (FIG. 1J, 2H, 3B-E, 3H-J, 6F, 6H, 60, 6Q), raw values for diameter, mean intensity, or area were plotted as indicated in figure legends using R-Studio and the Directlabels package.
(§2) For in vitro droplet formation, recombinant mCherry or mEGFP fusion proteins were measured for concentration, and then diluted or mixed to suitable final concentrations in storage buffer. For microscopy, these solutions were further diluted 1:2 in either 20% or 10% PEG-8000 in deionized water (w/v). 10 μL of this suspension was pipetted onto chambered coverslips, and immediately imaged using a LSM880 confocal microscope equipped with a 63×1.40 oil DIC objective and AiryScan detector. All images were acquired from within the solution interface, and performed before droplets settled onto the bottom of the coverslip, as described in (Sabari et al., 2018). For droplet assays using preformed GFP-Med1 condensates (FIG. 3E-F), GFPMed1 droplets were allowed to form for 30 minutes at room temperature in the presence of 10% PEG-8000, before proceeding with co-condensation assays. For compound treatments of cocondensates (FIG. 3G-J), small molecules [ATP (Jena Bioscience, NU-1010), Mitoxantrone dihydrochloride (Sigma M6545), (±)-α-lipoic acid (Sigma 62320), and lipoamide, (Medchemexpress HY-B1142)] were directly diluted into droplet mixtures with or without vehicle (DMSO, Sigma D2650) to the desired final concentrations.

Assay [2] deals with Hoxd13 puncta in limb bud cells. Nature of the assay: 1,6-hexanediol treatment of limb bud cells, Hoxd13 immunofluorescence. The assay is classed as cell-based, mouse. The following applies: 6% for 1 min; limb bud cells expressing +7A Hoxd13 (spdh) versus wt. The procedure:
1,6-hexanediol treatment: Isolated limb bud cells attached to fibronectin coated glass coverslips were treated with 6% or 0% hexanediol (Sigma, 240117) in 1 mL cell culture media for 1 minute at 37° C. After treatment, cells were washed with 1 mL of PBS, and immediately fixed in 4% paraformaldehyde in PBS for 10 min. Fixed cells were washed and then stored at 4° C. until processing for immunofluorescence and microscopy.
Isolated limb bud cells, Kelly cells, and SH-SY5Y cells attached to coated glass coverslips were fixed in 4% paraformaldehyde (PFA) (Sigma-Aldrich, P6148) in PBS for 10 min and stored at 4° C. in PBS or processed immediately. Cells were permeabilized in 0.1% Triton X-100 (Thermo Scientific, 85111) in PBS for 10 min at RT. […]
Hoxd13 puncta detected in fixed cell immunofluorescence (FIG. 4C-D) were analyzed using a similar workflow described above. Nuclear regions were automatically detected in the Zen Blue (Zeiss) software package using the DAPI counterstain signal. Puncta were segmented on morphology, and then filtered based on fluorescence intensity and circularity. […] Values for nuclear area, Hoxd13 puncta area, Hoxd13 puncta mean fluorescence intensity, and Hoxd13 puncta count were measured for 120 wild type cells, 143 1-6 HD treated wild type cells, 63 spdh cells, and 62 1-6 HD treated spdh cells.

Assay [3] deals with Hoxd13 +7A IDR-Med1 IDR co-condensates. Nature of the assay: in vitro droplet assay, compound treatment of Hoxd13 IDR-Med1 IDR co-condensates. The assay is classed as biochemical. The following applies: summary statement; TFs containing disease-mutations. On the procedure:
as §1, §2

In the case of `O=C(O)CCCCC1CCSS1` (racemic) [lipoic acid, (±)-α-lipoic acid], the “reblending of co-condensates (ratio of GFP and mCherry fluorescence in HOXD13 IDR-mCherry containing droplets)” value in assay [1] was “failed to reblend”.

Regarding `OCCCCCCO` [1,6-HD, 1,6-hexanediol], the “sensitivity of Hoxd13 puncta to 1,6-HD” value in assay [2] is recorded as “considerably reduced sensitivity”.

In the case of `Nc1ncnc2c1ncn2[C@@H]1O[C@H](COP(=O)(O)OP(=O)(O)NP(=O)(O)O)[C@@H](O)[C@H]1O` [APPNP, adenosine-5′-[(β,γ)-imido]triphosphate], the “reblending of co-condensates (ratio of GFP and mCherry fluorescence in HOXD13 IDR-mCherry containing droplets)” value in assay [1] is listed as “capable of reblending”. The “composition of heterotypic condensates formed by Cluster 1 TFs with transcriptional co-activators (co-activator and TF content)” value in assay [3] is given as “effective”.

Take `NC(=O)CCCCC1CCSS1` (stereo not shown) [lipoamide]: in assay [1], the “reblending of co-condensates (ratio of GFP and mCherry fluorescence in HOXD13 IDR-mCherry containing droplets)” value is on record as “failed to reblend”.

Consider adenosine tri-phosphate [ATP], for which the “reblending of co-condensates (ratio of GFP and mCherry fluorescence in HOXD13 IDR-mCherry containing droplets)” value in assay [1] is listed as “reblended Hoxd13 +7A IDR-Med1 IDR co-condensates in a dose dependent manner”. In addition, the “composition of heterotypic condensates formed by Cluster 1 TFs with transcriptional co-activators (co-activator and TF content)” value in assay [3] was “revert the compositional alteration”.
